Among the test systems are CAKI-1 renal; CCRF-CEM leukemia; EKVX NSCLC; HCC-2998 colon; HOP-92 NSCLC; MCF7 breast; OVCAR-4 ovarian; PC-3 prostate; RXF 393 renal; SF-268 CNS; SK-MEL-2 melanoma; SNB-19 CNS; SNB-75 CNS; SR leukemia; UACC-257 melanoma; UACC-62 melanoma; MDA-MB-231 breast; RPMI-8226 leukemia.
Holding throughout (assay): NCI-60 cell line screen, 48 h

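The compound was tested at five concentrations on cells cultured in 96-well plates, with a 48-hour exposure period. Definition used: TGI = concentration required for complete inhibition of growth.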

In the case of `Cc1ccc(-c2n[nH]c(CC#N)n2)cc1`, the TGI in the assay with CAKI-1 renal, in the assay with CCRF-CEM leukemia, in the assay on EKVX NSCLC, with HCC-2998 colon, in the assay with HOP-92 NSCLC and in the assay with MCF7 breast was more than 100 µM throughout. The TGI with OVCAR-4 ovarian, with PC-3 prostate, with RXF 393 renal, with SF-268 CNS, with SK-MEL-2 melanoma and in the assay with SNB-19 CNS was more than 100 µM throughout. The TGI in the assay with SNB-75 CNS, in the assay with SR leukemia, in the assay with UACC-257 melanoma and in the assay on UACC-62 melanoma was more than 100 µM throughout.

As to `Cc1occc1C(=S)Nc1ccc(Cl)c(C(=O)OCC2CC2)c1`, the TGI in the assay with CAKI-1 renal is more than 100 µM; in the assay on CCRF-CEM leukemia it was 91.5 µM; with EKVX NSCLC it was more than 100 µM; in the assay on HCC-2998 colon, more than 100 µM; with HOP-92 NSCLC it was more than 100 µM; in the assay with MCF7 breast it was more than 100 µM. In addition, the TGI in the assay on MDA-MB-231 breast was more than 100 µM; with OVCAR-4 ovarian, more than 100 µM; in the assay with PC-3 prostate it was more than 100 µM; with RPMI-8226 leukemia it was 85.5 µM; with SF-268 CNS it was more than 100 µM; with SK-MEL-2 melanoma it was more than 100 µM. Besides, the TGI is more than 100 µM in the assay on SNB-19 CNS, 70.1 µM with SNB-75 CNS, more than 100 µM in the assay with UACC-257 melanoma and more than 100 µM in the assay on UACC-62 melanoma.

Take `C=C(Cl)C(Br)(CCl)CCC(Cl)C(C)C` (stereo unspecified) (tested in a mixture with another compound): the TGI with CAKI-1 renal was 7.54 µM; in the assay with CCRF-CEM leukemia, more than 100 µM; with EKVX NSCLC it was 29.6 µM; with HCC-2998 colon it was 10.7 µM; in the assay with HOP-92 NSCLC it was 3.46 µM; in the assay with MDA-MB-231 breast, 2.49 µM. Further, the TGI in the assay with OVCAR-4 ovarian worked out at 3.82 µM; with PC-3 prostate, 10.6 µM; with RXF 393 renal, 3.93 µM; in the assay on SF-268 CNS it was 3.53 µM; with SK-MEL-2 melanoma, 2.97 µM; with SNB-19 CNS it was 10.7 µM. The TGI was 2.35 µM in the assay with SNB-75 CNS, more than 100 µM in the assay on SR leukemia, 3.27 µM in the assay on UACC-257 melanoma and 2.59 µM in the assay with UACC-62 melanoma.

`Cn1cc(C=C(C#N)C#N)c(=O)n(C)c1=O`: the TGI with CAKI-1 renal, with EKVX NSCLC, in the assay with HOP-92 NSCLC, with MCF7 breast, in the assay with MDA-MB-231 breast and with OVCAR-4 ovarian was more than 100 µM in each case. For the same compound, the TGI with PC-3 prostate, in the assay with RPMI-8226 leukemia, in the assay on RXF 393 renal, with SF-268 CNS, with SK-MEL-2 melanoma and in the assay on SNB-19 CNS was more than 100 µM in each case. Besides, the TGI in the assay on SNB-75 CNS, in the assay on UACC-257 melanoma and in the assay with UACC-62 melanoma was more than 100 µM in each case.

Turning to `CNC(=S)N/N=C(\C)c1ccc(OC)cc1O`, the TGI with CAKI-1 renal, in the assay on CCRF-CEM leukemia, in the assay on EKVX NSCLC, in the assay on HCC-2998 colon, with HOP-92 NSCLC and in the assay on MDA-MB-231 breast was more than 100 µM in each case. Also, the TGI in the assay with OVCAR-4 ovarian is 94.2 µM; with PC-3 prostate, more than 100 µM; with RPMI-8226 leukemia, more than 100 µM; in the assay on RXF 393 renal it was more than 100 µM; with SF-268 CNS, more than 100 µM; in the assay on SK-MEL-2 melanoma, more than 100 µM. Moreover, the TGI with SNB-19 CNS, with SNB-75 CNS, in the assay with SR leukemia, in the assay with UACC-257 melanoma and in the assay on UACC-62 melanoma was more than 100 µM each time.

As for `Clc1ccc(OCc2nnc(CCCCCCCCc3nnc(COc4ccc(Cl)cc4)o3)o2)cc1`, the TGI in the assay on CAKI-1 renal, in the assay with EKVX NSCLC, with HCC-2998 colon, in the assay with HOP-92 NSCLC, in the assay on MCF7 breast and in the assay on MDA-MB-231 breast was more than 100 µM each time. The TGI with OVCAR-4 ovarian, with PC-3 prostate, in the assay with RPMI-8226 leukemia, in the assay on RXF 393 renal, in the assay with SF-268 CNS and in the assay on SK-MEL-2 melanoma was more than 100 µM throughout. In addition, the TGI in the assay on SNB-19 CNS, in the assay with SNB-75 CNS, with UACC-257 melanoma and with UACC-62 melanoma was more than 100 µM in each case.

Take `CCCN(CCC)C(=O)Cc1c2n(c3ccccc13)CCCc1ccccc1-2`: the TGI in the assay with CAKI-1 renal was found to be 28.4 µM; in the assay on CCRF-CEM leukemia, 37.2 µM; with EKVX NSCLC, 28.5 µM; with HCC-2998 colon it was 25.9 µM; in the assay with HOP-92 NSCLC, 14.7 µM; with OVCAR-4 ovarian it was 26.2 µM. The TGI is 37.6 µM in the assay with RPMI-8226 leukemia; 22.4 µM in the assay with RXF 393 renal; 28.5 µM in the assay on SF-268 CNS; 25.8 µM in the assay with SK-MEL-2 melanoma; 27.7 µM with SNB-19 CNS; 24.4 µM in the assay with SNB-75 CNS. Besides, the TGI worked out at 24.8 µM in the assay on SR leukemia, 27 µM in the assay on UACC-257 melanoma and 23 µM in the assay on UACC-62 melanoma.

Consider `O=C1CC(CC(O)C(O)CO)CC(=O)N1` (stereo unspecified), for which the TGI in the assay on CAKI-1 renal, in the assay on CCRF-CEM leukemia, with EKVX NSCLC, in the assay on HCC-2998 colon, in the assay with HOP-92 NSCLC and in the assay on MCF7 breast was more than 100 µM in each case. Also, the TGI with MDA-MB-231 breast, with PC-3 prostate, in the assay with RPMI-8226 leukemia, in the assay on SF-268 CNS, in the assay on SNB-19 CNS and in the assay with UACC-257 melanoma was more than 100 µM throughout.

For the compound `O=c1oc2ccccc2c(O)c1C(c1ccc([N+](=O)[O-])cc1)c1c(O)c2ccccc2oc1=O`, the TGI in the assay on CAKI-1 renal, in the assay on CCRF-CEM leukemia, with EKVX NSCLC, in the assay on HOP-92 NSCLC, with MDA-MB-231 breast and in the assay with OVCAR-4 ovarian was more than 100 µM each time. Further, the TGI in the assay with PC-3 prostate, in the assay with SF-268 CNS, with SK-MEL-2 melanoma, in the assay on SNB-19 CNS, in the assay on SNB-75 CNS and with UACC-257 melanoma was more than 100 µM each time. The compound also yielded a TGI with UACC-62 melanoma of more than 100 µM.

These data come from PubChem BioAssay (NCI).
